Measurements from ChEMBL document CHEMBL1201862, “PubChem BioAssay data set” (2004).
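Protocol summary: plate cells (96-well), add compound at 5 concentrations, incubate 48 h, interpolate endpoints linearly. GI50: concentration for 50% inhibition of growth.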 The source made the active and inactive calls. Rule as the data show it: active = GI50 up to about 1.1 µM and inactive = higher.

Tests used:
Assay in all cases: growth of human tumour cells (NCI), 48 h
UO-31 = system: UO-31
M14 = system: M14
NCI-H522 = system: NCI-H522
SF-539 = system: SF-539
MOLT-4 = system: MOLT-4
LOX IMVI = system: LOX IMVI
SNB-19 = system: SNB-19
OVCAR-3 = system: OVCAR-3
SR = system: SR
HOP-62 = system: HOP-62
TK-10 = system: TK-10
RPMI-8226 = system: RPMI-8226
HL-60 = system: HL-60
CCRF-CEM = system: CCRF-CEM
NCI-H460 = system: NCI-H460

Compound | GI50 (UO-31) | GI50 (M14) | GI50 (NCI-H522) | GI50 (SF-539) | GI50 (MOLT-4) | GI50 (LOX IMVI) | GI50 (SNB-19) | GI50 (OVCAR-3) | GI50 (SR) | GI50 (HOP-62) | GI50 (TK-10) | GI50 (RPMI-8226) | GI50 (HL-60) | GI50 (CCRF-CEM) | GI50 (NCI-H460)
COc1ccc2nc3cccc(C(=O)NCCN(C)C)c3nc2c1 | 2.45 µM (inactive) | 2.28 µM (inactive) | 2.73 µM (inactive) | 2.1 µM (inactive) | 0.187 µM (active) | 0.64 µM (active) | 2.84 µM (inactive) | 2.08 µM (inactive) | 0.264 µM (active) | 1.45 µM (inactive) | 2 µM (inactive) | 0.824 µM (active) | 1.08 µM (active) |  | 
CC1=C2C3OC(=O)C(C)C3C(O)C[C@@]2(C)C(=O)CC1 (some centres undefined) | > 100 µM (inactive) | > 100 µM (inactive) | > 100 µM (inactive) | > 100 µM (inactive) | > 100 µM (inactive) | > 100 µM (inactive) | > 100 µM (inactive) | > 100 µM (inactive) | > 100 µM (inactive) | > 100 µM (inactive) | > 100 µM (inactive) | > 100 µM (inactive) | > 100 µM (inactive) | > 100 µM (inactive) | > 100 µM (inactive)
CN(C)C(=O)/N=c1\ss/c(=N\C(=S)N(C)C)n1-c1ccccc1 | 33 µM (inactive) | 20 µM (inactive) | < 0.01 µM (active) | 35.4 µM (inactive) | 7.78 µM (inactive) | 3.53 µM (inactive) | 35.6 µM (inactive) | 21.2 µM (inactive) | 10 µM (inactive) | > 68.9 µM (inactive) | 31.4 µM (inactive) | 17 µM (inactive) | 8.34 µM (inactive) | 0.184 µM (active) | 17 µM (inactive)
CN(C)CC(/C(Cc1ccccc1)=N\NC(=O)C[n+]1ccccc1)c1ccccc1 (centres undefined) | > 100 µM (inactive) | > 100 µM (inactive) | 80.9 µM (inactive) | > 100 µM (inactive) | > 100 µM (inactive) | > 10 µM (inactive) | > 100 µM (inactive) | > 100 µM (inactive) | > 100 µM (inactive) | > 100 µM (inactive) | > 100 µM (inactive) |  | > 100 µM (inactive) | > 100 µM (inactive) | > 100 µM (inactive)
CC(C)CCCC(C)[C@H]1CCC2[C@@H]3CCC4Nc5c(cnn5-c5ccccc5)C[C@]4(C)C3CC[C@@]21C (some centres undefined) | 15 µM (inactive) | 39.8 µM (inactive) | 43.1 µM (inactive) | 12.9 µM (inactive) | 3.32 µM (inactive) |  | 18.2 µM (inactive) | 32.5 µM (inactive) |  | 14.3 µM (inactive) | > 100 µM (inactive) | 3.61 µM (inactive) | 4.67 µM (inactive) | 7.45 µM (inactive) | 14.1 µM (inactive)
N#Cc1ccccc1NC(=O)C(=O)C(C(=O)c1ccccc1-c1ccccc1)C1OC(=O)c2ccccc21 (centres undefined) | > 10 µM (inactive) | 15.4 µM (inactive) | 7.73 µM (inactive) | 10.7 µM (inactive) | 13.9 µM (inactive) | 15 µM (inactive) |  | 15.8 µM (inactive) |  | 11.9 µM (inactive) | > 10 µM (inactive) | 11.7 µM (inactive) | 14 µM (inactive) | 18.4 µM (inactive) | 18.2 µM (inactive)
CCOC(=O)NC(=O)c1cn(CCCOC(=O)CCCCCCCCC(=O)OCCCn2cc(C(=O)NC(=O)OCC)c(=O)[nH]c2=O)c(=O)[nH]c1=O |  | 21.5 µM (inactive) |  | 23.8 µM (inactive) | 19 µM (inactive) | 16.4 µM (inactive) | 22.3 µM (inactive) | 15.8 µM (inactive) |  | 26 µM (inactive) | 22.3 µM (inactive) | 5.22 µM (inactive) | 5.14 µM (inactive) | 3.47 µM (inactive) | 39.4 µM (inactive)
C[n+]1c2ccccc2c(/C=N\NS(=O)(=O)c2ccc(Cl)cc2)c2ccccc21 | 27.3 µM (inactive) | 56.4 µM (inactive) | 46.8 µM (inactive) | 87.5 µM (inactive) | 32.9 µM (inactive) | 16.8 µM (inactive) | 59.2 µM (inactive) | 41.8 µM (inactive) |  | > 100 µM (inactive) | 74 µM (inactive) | 42.6 µM (inactive) | 30.1 µM (inactive) | 15.1 µM (inactive) | 32.4 µM (inactive)
Cc1ccc(/C=C/C(=O)c2sc(-n3nc(-c4ccccc4)cc3-c3ccccc3)nc2C)cc1 | > 100 µM (inactive) |  | 87.5 µM (inactive) | > 100 µM (inactive) | 8.39 µM (inactive) | > 100 µM (inactive) |  | > 100 µM (inactive) |  | > 100 µM (inactive) | > 100 µM (inactive) | > 100 µM (inactive) | 36.4 µM (inactive) | > 100 µM (inactive) | > 100 µM (inactive)
Cc1ccc(NC(=O)c2cc3cc(/N=N/c4ccc(Br)cc4)ccc3oc2=O)cc1 |  | > 10 µM (inactive) | > 100 µM (inactive) |  | 83 µM (inactive) | > 100 µM (inactive) | 25.9 µM (inactive) |  | 61 µM (inactive) | > 10 µM (inactive) | > 100 µM (inactive) | > 100 µM (inactive) | 23.4 µM (inactive) |  | > 100 µM (inactive)
CCOP1(=O)C=C(C)C(=C(Cl)Cl)C(C)=C1 (centres undefined) | 13.9 µM (inactive) | 8.32 µM (inactive) | 3.58 µM (inactive) | 18.1 µM (inactive) | 5.64 µM (inactive) | 4.36 µM (inactive) | 20.1 µM (inactive) | 20.6 µM (inactive) |  | 15.4 µM (inactive) | 21.3 µM (inactive) | 3.29 µM (inactive) | 3.33 µM (inactive) | 10.2 µM (inactive) | 17.5 µM (inactive)
COc1ccc2cc3c4cc(OC)c(OC)cc4ccn3c2c1 | > 100 µM (inactive) |  | > 100 µM (inactive) | > 100 µM (inactive) | > 100 µM (inactive) | > 100 µM (inactive) | > 100 µM (inactive) |  | > 100 µM (inactive) | > 100 µM (inactive) | > 100 µM (inactive) |  | > 100 µM (inactive) | > 100 µM (inactive) | > 100 µM (inactive)
Cc1cc(C)c(C(=O)/C=C/c2ccccc2)c(C)c1 | 52.4 µM (inactive) | 19.4 µM (inactive) | 19.1 µM (inactive) | > 10 µM (inactive) | 24.9 µM (inactive) |  | 28.5 µM (inactive) | > 10 µM (inactive) | 30.5 µM (inactive) | 34.3 µM (inactive) | 47.5 µM (inactive) | 29.8 µM (inactive) | 25.9 µM (inactive) | 25.4 µM (inactive) | 18.7 µM (inactive)
COc1cccc(/C=C\c2cc(OC)c(OC)c(OC)c2)c1 | 4.48 µM (inactive) | 0.604 µM (active) | 0.375 µM (active) | 0.753 µM (active) | 0.379 µM (active) |  | 2.18 µM (inactive) | 0.506 µM (active) | 0.498 µM (active) | 1.51 µM (inactive) |  | 0.845 µM (active) |  | 1.21 µM (inactive) | 0.562 µM (active)
CC(=O)Nc1ccc(-c2nnc(SCC(=O)Nc3cccc(C)c3)o2)cc1 | 13.2 µM (inactive) | 13 µM (inactive) | 4.4 µM (inactive) | 14.5 µM (inactive) | 4.84 µM (inactive) | 3.43 µM (inactive) |  | 11.7 µM (inactive) | 4.93 µM (inactive) | 28.7 µM (inactive) | 15.8 µM (inactive) | 13.8 µM (inactive) | 19.5 µM (inactive) | 6.62 µM (inactive) | 15 µM (inactive)
O=C(NCCOC(=O)CCCCCCCCC(=O)OCCNC(=O)NC(=O)c1cn(Cc2ccccc2)c(=O)[nH]c1=O)NC(=O)c1cn(Cc2ccccc2)c(=O)[nH]c1=O | > 100 µM (inactive) | > 100 µM (inactive) | > 100 µM (inactive) | > 100 µM (inactive) | > 100 µM (inactive) | > 100 µM (inactive) | > 100 µM (inactive) | > 100 µM (inactive) | > 100 µM (inactive) | > 100 µM (inactive) | > 100 µM (inactive) | > 100 µM (inactive) | > 100 µM (inactive) |  | > 100 µM (inactive)
COC1=CC(=O)NCCN1 | > 100 µM (inactive) | > 100 µM (inactive) | > 100 µM (inactive) | > 100 µM (inactive) | > 100 µM (inactive) | 23.5 µM (inactive) | > 100 µM (inactive) | > 100 µM (inactive) | > 100 µM (inactive) | > 100 µM (inactive) | > 100 µM (inactive) |  | 21 µM (inactive) | 51.4 µM (inactive) | 29.3 µM (inactive)
CCOCN1COCN/C1=N/C#N | > 100 µM (inactive) | > 100 µM (inactive) | > 100 µM (inactive) | > 100 µM (inactive) | > 100 µM (inactive) |  | > 100 µM (inactive) | > 100 µM (inactive) | 25.8 µM (inactive) | > 100 µM (inactive) | > 100 µM (inactive) |  | > 100 µM (inactive) |  | > 100 µM (inactive)
CC1(C)OC(=O)[C@@](C)([C@H](O)c2ccccc2)O1 | > 100 µM (inactive) | > 100 µM (inactive) | 67 µM (inactive) | > 100 µM (inactive) | 45.1 µM (inactive) |  | > 100 µM (inactive) | 35.8 µM (inactive) | 50.6 µM (inactive) | > 100 µM (inactive) | > 100 µM (inactive) |  | 32.6 µM (inactive) | > 100 µM (inactive) | > 100 µM (inactive)
N#Cc1nn(-c2ccc(Cl)cc2)c(=N)c2c(N)n3nc(-c4ccccc4)cc3nc12 |  | 1 µM (active) |  | 0.497 µM (active) | 0.294 µM (active) | 0.594 µM (active) | 1 µM (active) | 0.804 µM (active) | < 0.01 µM (active) | 0.485 µM (active) | > 100 µM (inactive) | 1 µM (active) | > 100 µM (inactive) | 1 µM (active) | 1 µM (active)
